The target of assay [1] is T1, Human DNA Polymerase Pol Gamma (Homo sapiens, UniProt P54098).
T1 construct: made in house
T1 sequence (P54098 26-1239 limits assumed): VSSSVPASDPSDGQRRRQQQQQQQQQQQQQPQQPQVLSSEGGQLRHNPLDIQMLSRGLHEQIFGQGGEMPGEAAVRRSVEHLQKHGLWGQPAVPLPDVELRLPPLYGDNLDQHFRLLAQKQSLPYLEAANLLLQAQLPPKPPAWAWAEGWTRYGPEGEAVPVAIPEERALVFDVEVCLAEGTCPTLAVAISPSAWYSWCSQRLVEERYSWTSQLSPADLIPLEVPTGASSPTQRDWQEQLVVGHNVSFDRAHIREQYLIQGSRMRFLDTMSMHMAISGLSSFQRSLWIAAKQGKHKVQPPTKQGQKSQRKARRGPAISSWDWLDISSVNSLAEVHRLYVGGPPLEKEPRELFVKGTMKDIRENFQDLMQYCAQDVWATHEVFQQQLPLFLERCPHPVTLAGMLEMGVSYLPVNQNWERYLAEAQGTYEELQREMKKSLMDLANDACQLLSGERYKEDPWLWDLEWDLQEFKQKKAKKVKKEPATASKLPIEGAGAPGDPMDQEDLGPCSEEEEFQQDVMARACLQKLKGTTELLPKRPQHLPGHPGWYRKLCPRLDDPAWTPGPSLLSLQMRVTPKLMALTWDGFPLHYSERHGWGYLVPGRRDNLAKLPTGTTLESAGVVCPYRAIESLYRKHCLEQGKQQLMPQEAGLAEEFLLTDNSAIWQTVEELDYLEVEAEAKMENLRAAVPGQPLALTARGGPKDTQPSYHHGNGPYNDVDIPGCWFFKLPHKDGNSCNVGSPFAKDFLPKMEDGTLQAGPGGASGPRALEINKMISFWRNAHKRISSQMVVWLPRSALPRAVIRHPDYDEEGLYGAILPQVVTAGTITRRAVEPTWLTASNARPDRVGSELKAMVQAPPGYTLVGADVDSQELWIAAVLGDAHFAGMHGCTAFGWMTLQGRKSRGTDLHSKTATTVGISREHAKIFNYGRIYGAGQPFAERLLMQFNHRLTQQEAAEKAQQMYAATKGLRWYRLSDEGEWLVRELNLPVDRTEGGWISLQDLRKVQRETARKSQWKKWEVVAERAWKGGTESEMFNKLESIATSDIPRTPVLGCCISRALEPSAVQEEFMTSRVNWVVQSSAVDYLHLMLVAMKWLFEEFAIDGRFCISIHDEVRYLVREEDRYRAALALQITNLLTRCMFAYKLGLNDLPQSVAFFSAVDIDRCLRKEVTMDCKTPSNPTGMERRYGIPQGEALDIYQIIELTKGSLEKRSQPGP
T1 sequence (Q9UHN1 26-485 partner limits assumed): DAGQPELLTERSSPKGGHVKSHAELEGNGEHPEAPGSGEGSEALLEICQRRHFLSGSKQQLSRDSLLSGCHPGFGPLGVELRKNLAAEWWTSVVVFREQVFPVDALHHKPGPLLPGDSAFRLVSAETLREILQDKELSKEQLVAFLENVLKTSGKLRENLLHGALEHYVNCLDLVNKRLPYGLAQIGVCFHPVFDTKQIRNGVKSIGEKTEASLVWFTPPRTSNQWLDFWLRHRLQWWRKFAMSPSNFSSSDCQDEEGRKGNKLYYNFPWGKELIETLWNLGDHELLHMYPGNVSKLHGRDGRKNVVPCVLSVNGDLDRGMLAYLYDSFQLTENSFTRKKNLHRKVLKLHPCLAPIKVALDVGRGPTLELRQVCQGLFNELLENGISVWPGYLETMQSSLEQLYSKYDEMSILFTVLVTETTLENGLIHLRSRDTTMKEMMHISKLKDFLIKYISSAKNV
As to the kind of experiment: Inhibition of Human DNA Polymerase Gamma. Format: biochemical.

In assay [2] the target is Human DNA Polymerase Pol Beta (Homo sapiens, UniProt P06746). The experiment in a line: Inhibition of Human DNA Polymerase Beta. The assay is classed as biochemical.

One may read the IC50 as the point on the concentration scale where inhibition reaches its midpoint. `Cc1cn([C@H]2CC[C@@H](COP(=O)(O)OP(=O)(O)OP(=O)(O)O)O2)c(=O)[nH]c1=O` [ddTTP]: the IC50 turned out to be 43 µM in assay [1] and 18 µM in assay [2].
